Experimental data: ChEMBL document CHEMBL6134887, “Linker and Head-Group Exploration of Anti-MRSA Triaromatic Pleuromutilins” (J Med Chem, 2025)
Converted amounts (≈) assume the structure as drawn.

Tests used:
[1] = Metabolic stability in mouse liver microsomes assessed as half-life at 1 uM measured up to 60 mins by LC-MS/MS analysis; type: ADME, Microsome
Streptococcus pneumoniae = test: Antibacterial activity against Streptococcus pneumoniae assessed as inhibition of bacterial growth incubated for 20 to 24 hrs by microbroth serial dilution method; type: functional; details: time 20-24 hrs, read-out: MIC100
[2] = Metabolic stability in mouse liver assessed as intrinsic clearance at 1 uM measured up to 60 mins by LC-MS/MS analysis; type: ADME, tissue-based; details: read-out: CLH
Enterococcus faecalis = test: Antibacterial activity against Enterococcus faecalis assessed as inhibition of bacterial growth incubated for 20 to 24 hrs by microbroth serial dilution method; type: functional; details: time 20-24 hrs, read-out: MIC100
Enterococcus faecium [3] = test: Antibacterial activity against vancomycin, ampicillin and ciprofloxacin resistant Enterococcus faecium clinical isolate 1 assessed as inhibition of bacterial growth incubated for 20 to 24 hrs by microbroth serial dilution method; type: functional; details: time 20-24 hrs, read-out: MIC100
Enterococcus faecium [4] = test: Antibacterial activity against vancomycin, ampicillin and ciprofloxacin resistant Enterococcus faecium clinical isolate 5 assessed as inhibition of bacterial growth incubated for 20 to 24 hrs by microbroth serial dilution method; type: functional; details: time 20-24 hrs, read-out: MIC100
[5] = Metabolic stability in human liver assessed as intrinsic clearance at 1 uM measured up to 30 mins by LC-MS/MS analysis; type: ADME, tissue-based; details: read-out: CLH
[6] = Metabolic stability in human liver microsomes assessed as half-life at 1 uM measured up to 30 mins by LC-MS/MS analysis; type: ADME, Microsome
Staphylococcus aureus [7] = test: Antibacterial activity against methicillin resistant Staphylococcus aureus USA300 FPR3757 assessed as inhibition of bacterial growth incubated for 20 to 24 hrs by microbroth serial dilution method; type: functional; details: time 20-24 hrs, read-out: MIC100
Staphylococcus aureus [8] = test: Antibacterial activity against methicillin resistant Staphylococcus aureus clinical isolate 933010 assessed as inhibition of bacterial growth incubated for 20 to 24 hrs by microbroth serial dilution method; type: functional; details: time 20-24 hrs, read-out: MIC100
Staphylococcus aureus [9] = test: Antibacterial activity against methicillin susceptible Staphylococcus aureus ATCC 29213 assessed as inhibition of bacterial growth incubated for 20 to 24 hrs by microbroth serial dilution method; type: functional; details: time 20-24 hrs, read-out: MIC100
Staphylococcus aureus [10] = test: Antibacterial activity against methicillin susceptible Staphylococcus aureus ATCC 25923 assessed as inhibition of bacterial growth incubated for 20 to 24 hrs by microbroth serial dilution method; type: functional; details: time 20-24 hrs, read-out: MIC100
Staphylococcus aureus [11] = test: Antibacterial activity against methicillin resistant Staphylococcus aureus clinical isolate 52518 assessed as inhibition of bacterial growth incubated for 20 to 24 hrs by microbroth serial dilution method; type: functional; details: time 20-24 hrs, read-out: MIC100
Caco-2 = test: Cytotoxicity against human Caco-2 cells assessed as reduction in cell viability at 1 to 10 uM measured after 1 to 8 days by Celltiter-Glo reagent based assay; type: toxicity; details: caco-2, 10 µM, dose lower 1 µM, time lower 1 day, dose upper 10 µM, time upper 8 day
MDCK-MDR1 = test: Cytotoxicity against MDCKII-MDR1 cells assessed as reduction in cell viability at 1 to 10 uM measured after 3 hrs by Celltiter-Glo reagent based assay; type: toxicity, Canis lupus familiaris; details: dog, mdck-mdr1, 3 h, dose 1-10 µM
DU-145 = test: Cytotoxicity against human DU-145 cells assessed as reduction in cell viability at 1 to 10 uM measured after 3 hrs by Celltiter-Glo reagent based assay; type: toxicity; details: du-145, 3 h, dose 1-10 µM
Staphylococcus aureus [12] = test: Antibacterial activity against methicillin resistant Staphylococcus aureus clinical isolate 55508 assessed as inhibition of bacterial growth incubated for 20 to 24 hrs by microbroth serial dilution method; type: functional; details: time 20-24 hrs, read-out: MIC100
Staphylococcus aureus [13] = test: Antibacterial activity against mupirocin resistant Staphylococcus aureus 4828 assessed as inhibition of bacterial growth incubated for 20 to 24 hrs by microbroth serial dilution method; type: functional; details: time 20-24 hrs, read-out: MIC100

SMILES | half-life at 1 µM [1] [min] | MIC (Streptococcus pneumoniae) [µg/mL] | CLint scaled at 1 µM [2] [L/h/kg] | MIC (Enterococcus faecalis) [µg/mL] | MIC (Enterococcus faecium [3]) [µg/mL] | MIC (Enterococcus faecium [4]) [µg/mL] | CLint scaled at 1 µM [5] [L/h/kg] | half-life at 1 µM [6] [min] | MIC (Staphylococcus aureus [7]) [µg/mL] | MIC (Staphylococcus aureus [8]) [µg/mL] | MIC (Staphylococcus aureus [9]) [µg/mL] | MIC (Staphylococcus aureus [10]) [µg/mL] | MIC (Staphylococcus aureus [11]) [µg/mL] | Activity (Caco-2) | Activity (MDCK-MDR1) | Activity (DU-145) | MIC (Staphylococcus aureus [12]) [µg/mL] | MIC (Staphylococcus aureus [13]) [µg/mL]
C=C[C@]1(C)C[C@@H](OC(=O)Cn2cc(-c3cccc(Nc4ncnc5[nH]cnc45)c3)nn2)[C@]2(C)[C@H](C)CC[C@]3(CCC(=O)[C@H]32)[C@@H](C)[C@@H]1O | 0.67 | 0.5 (≈ 0.783 µM) | 489 | 0.5 (≈ 0.783 µM) | 0.25 (≈ 0.391 µM) | 0.25 (≈ 0.391 µM) | 188 | 2 | 0.06 (≈ 0.0939 µM) | – | – | – | – | – | – | – | – | –
C=C[C@]1(C)C[C@@H](OC(=O)Cn2cc(-c3cccc(Nc4cc(N)ncn4)c3)nn2)[C@]2(C)[C@H](C)CC[C@]3(CCC(=O)[C@H]32)[C@@H](C)[C@@H]1O | 0.76 | 1 (≈ 1.63 µM) | 434 | 0.5 (≈ 0.815 µM) | 0.25 (≈ 0.407 µM) | 0.25 (≈ 0.407 µM) | 94.9 | 3.9 | 0.03 (≈ 0.0489 µM) | 0.12 (≈ 0.196 µM) | 0.015 (≈ 0.0244 µM) | 0.25 (≈ 0.407 µM) | 0.06 (≈ 0.0978 µM) | Non-toxic | Non-toxic | Non-toxic | 0.12 (≈ 0.196 µM) | 0.12 (≈ 0.196 µM)
C=C[C@]1(C)C[C@@H](OC(=O)Cn2cc(-c3cncc(NC(=O)c4ccc(OC)cc4)c3)nn2)[C@]2(C)[C@H](C)CC[C@]3(CCC(=O)[C@H]32)[C@@H](C)[C@@H]1O | 0.56 | – | 591 | – | – | – | 219 | 1.7 | 0.06 (≈ 0.0915 µM) | – | – | – | – | – | – | – | – | –
C=C[C@]1(C)C[C@@H](OC(=O)Cn2cc(-c3ccc(Cn4cnc5c(N)ncnc54)cc3)nn2)[C@]2(C)[C@H](C)CC[C@]3(CCC(=O)[C@H]32)[C@@H](C)[C@@H]1O | < 0.5 | – | > 600 | – | – | – | – | – | – | 0.25 (≈ 0.383 µM) | 0.03 (≈ 0.046 µM) | 0.06 (≈ 0.0919 µM) | 0.03 (≈ 0.046 µM) | – | – | – | 0.06 (≈ 0.0919 µM) | 0.06 (≈ 0.0919 µM)
C=C[C@]1(C)C[C@@H](OC(=O)Cn2cc(-c3ccc(Nc4ncnc5[nH]cnc45)cc3)nn2)[C@]2(C)[C@H](C)CC[C@]3(CCC(=O)[C@H]32)[C@@H](C)[C@@H]1O | 1.76 | – | 187 | – | – | – | 17.8 | 23.4 | 0.12 (≈ 0.188 µM) | – | – | – | – | – | – | – | – | –
C=C[C@]1(C)C[C@@H](OC(=O)Cn2cc(-c3cncc(C(=O)Nc4ccc(N)nc4)c3)nn2)[C@]2(C)[C@H](C)CC[C@]3(CCC(=O)[C@H]32)[C@@H](C)[C@@H]1O | 0.6 | 1 (≈ 1.56 µM) | 546 | 1 (≈ 1.56 µM) | 1 (≈ 1.56 µM) | 1 (≈ 1.56 µM) | – | – | 0.25 (≈ 0.39 µM) | – | – | – | – | – | – | – | – | –
C=C[C@]1(C)C[C@@H](OC(=O)Cn2cc(-c3ccc(C(O)c4ccc5c(N)ncnn45)cn3)nn2)[C@]2(C)[C@H](C)CC[C@]3(CCC(=O)[C@H]32)[C@@H](C)[C@@H]1O (some centres not stated) | 0.66 | – | 500 | – | – | – | 275 | 1.4 | 0.03 (≈ 0.0449 µM) | – | – | – | – | – | – | – | – | –
C=C[C@]1(C)C[C@@H](OC(=O)Cn2cc(-c3cncc(C(O)c4ccc5c(N)ncnn45)c3)nn2)[C@]2(C)[C@H](C)CC[C@]3(CCC(=O)[C@H]32)[C@@H](C)[C@@H]1O (some centres not stated) | 2.5 | – | 131 | – | – | – | 68.8 | 5.4 | 0.25 (≈ 0.374 µM) | – | – | – | – | – | – | – | – | –
C=C[C@]1(C)C[C@@H](OC(=O)Cn2cc(-c3cccc(NC(=O)c4ccc(OC)cc4)c3)nn2)[C@]2(C)[C@H](C)CC[C@]3(CCC(=O)[C@H]32)[C@@H](C)[C@@H]1O | – | 0.25 (≈ 0.382 µM) | – | 0.5 (≈ 0.764 µM) | 0.12 (≈ 0.183 µM) | 0.25 (≈ 0.382 µM) | – | – | 0.12 (≈ 0.183 µM) | – | – | – | – | – | – | – | – | –
